Tests used:
Aurora kinase B = Aurora kinase B (Homo sapiens, UniProt Q96GD4); assay: Selectivity interaction (Enzymatic assay) EUB0001199aCl AURKB
[1] = Selectivity interaction (KinomeScan (DiscoverX)) EUB0000666a CDK2H; details: at 10 µM
[2] = target: Serine/threonine-protein kinase B-raf (Homo sapiens, UniProt P15056, V600E); assay: Selectivity interaction (Radiometric kinase assay (using 10 uM ATP)) EUB0000601a BRAF
[3] = target: Calcium/calmodulin-dependent protein kinase type 1D (Homo sapiens) (UniProt Q8IU85); assay: Selectivity interaction (KinomeScan (DiscoverX)) EUB0000229b CAMK1D; details: at 10 µM
[4] = target: Serine/threonine-protein kinase pim-2 (Homo sapiens, UniProt Q9P1W9); assay: Selectivity interaction (KinomeScan (DiscoverX)) EUB0001079a PIM2; details: at 1 µM
Sequence of Serine/threonine-protein kinase pim-2 (Q9P1W9 whole entry, looked up): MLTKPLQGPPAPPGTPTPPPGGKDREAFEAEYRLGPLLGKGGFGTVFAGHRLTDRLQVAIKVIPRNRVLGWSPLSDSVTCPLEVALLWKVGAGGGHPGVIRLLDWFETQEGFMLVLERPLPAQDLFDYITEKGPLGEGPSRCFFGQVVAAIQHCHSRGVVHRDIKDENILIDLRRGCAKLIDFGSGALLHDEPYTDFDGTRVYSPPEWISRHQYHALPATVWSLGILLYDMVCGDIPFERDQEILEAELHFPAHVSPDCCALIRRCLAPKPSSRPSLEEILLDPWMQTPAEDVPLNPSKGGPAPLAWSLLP

[5] = target: Protein polybromo-1 (Homo sapiens) (UniProt Q86U86); assay: Selectivity interaction (Human bromodomain panel (DSF assay)) EUB0000233b PBRM1
Sequence of Protein polybromo-1 (Homo sapiens) (Q86U86 whole entry): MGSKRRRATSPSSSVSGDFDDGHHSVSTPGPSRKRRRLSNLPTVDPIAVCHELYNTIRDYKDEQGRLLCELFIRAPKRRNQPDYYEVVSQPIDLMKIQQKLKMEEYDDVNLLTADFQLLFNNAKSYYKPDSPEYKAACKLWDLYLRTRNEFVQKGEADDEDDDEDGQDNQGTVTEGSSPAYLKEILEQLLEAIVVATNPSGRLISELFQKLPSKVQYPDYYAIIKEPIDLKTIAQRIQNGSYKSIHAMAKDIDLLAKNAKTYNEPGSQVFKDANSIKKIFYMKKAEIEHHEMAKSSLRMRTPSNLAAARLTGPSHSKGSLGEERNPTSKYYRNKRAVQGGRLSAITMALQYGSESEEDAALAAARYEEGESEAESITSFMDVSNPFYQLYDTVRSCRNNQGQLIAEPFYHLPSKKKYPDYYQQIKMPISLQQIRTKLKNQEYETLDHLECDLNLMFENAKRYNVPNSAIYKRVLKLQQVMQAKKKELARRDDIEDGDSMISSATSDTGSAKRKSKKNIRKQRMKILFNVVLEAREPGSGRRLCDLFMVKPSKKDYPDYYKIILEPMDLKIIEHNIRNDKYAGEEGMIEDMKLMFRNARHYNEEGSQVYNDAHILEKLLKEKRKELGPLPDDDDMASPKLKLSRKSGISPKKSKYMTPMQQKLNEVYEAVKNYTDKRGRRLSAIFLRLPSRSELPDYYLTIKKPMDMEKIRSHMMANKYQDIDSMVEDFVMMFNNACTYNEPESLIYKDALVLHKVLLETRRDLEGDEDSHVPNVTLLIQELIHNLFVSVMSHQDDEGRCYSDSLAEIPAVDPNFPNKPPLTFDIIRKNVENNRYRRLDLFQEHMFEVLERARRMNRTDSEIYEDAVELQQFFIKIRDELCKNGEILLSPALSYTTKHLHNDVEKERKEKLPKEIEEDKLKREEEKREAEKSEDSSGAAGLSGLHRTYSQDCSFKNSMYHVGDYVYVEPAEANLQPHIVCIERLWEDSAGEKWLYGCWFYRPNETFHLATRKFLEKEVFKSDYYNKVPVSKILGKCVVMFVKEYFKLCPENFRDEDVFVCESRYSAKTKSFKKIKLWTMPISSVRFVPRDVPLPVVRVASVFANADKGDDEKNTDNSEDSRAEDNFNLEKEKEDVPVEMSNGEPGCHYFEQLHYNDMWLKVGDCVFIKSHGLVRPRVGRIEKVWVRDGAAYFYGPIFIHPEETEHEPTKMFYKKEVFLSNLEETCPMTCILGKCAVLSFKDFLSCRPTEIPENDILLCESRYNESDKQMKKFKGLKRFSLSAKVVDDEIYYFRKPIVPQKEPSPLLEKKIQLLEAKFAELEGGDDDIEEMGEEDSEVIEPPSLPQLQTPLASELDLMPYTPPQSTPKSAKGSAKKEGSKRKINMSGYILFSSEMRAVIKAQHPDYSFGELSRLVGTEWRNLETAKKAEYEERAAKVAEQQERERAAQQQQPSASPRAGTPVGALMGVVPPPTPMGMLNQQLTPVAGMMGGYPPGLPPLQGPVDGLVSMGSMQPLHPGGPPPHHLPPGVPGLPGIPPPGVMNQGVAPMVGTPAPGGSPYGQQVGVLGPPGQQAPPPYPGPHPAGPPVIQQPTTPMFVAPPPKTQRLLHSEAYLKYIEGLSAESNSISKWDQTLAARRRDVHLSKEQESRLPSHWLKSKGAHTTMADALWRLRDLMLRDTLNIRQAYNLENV

[6] = target: T1, Serine/threonine-protein kinase Nek3 (Homo sapiens) (UniProt P51956); assay: Selectivity interaction (ActivX KiNativ screen (kinase selectivity in THP-1 cell lysates)) EUB0000639a NEK3; assay type: subcellular; details: lysate
T1 sequence (whole entry): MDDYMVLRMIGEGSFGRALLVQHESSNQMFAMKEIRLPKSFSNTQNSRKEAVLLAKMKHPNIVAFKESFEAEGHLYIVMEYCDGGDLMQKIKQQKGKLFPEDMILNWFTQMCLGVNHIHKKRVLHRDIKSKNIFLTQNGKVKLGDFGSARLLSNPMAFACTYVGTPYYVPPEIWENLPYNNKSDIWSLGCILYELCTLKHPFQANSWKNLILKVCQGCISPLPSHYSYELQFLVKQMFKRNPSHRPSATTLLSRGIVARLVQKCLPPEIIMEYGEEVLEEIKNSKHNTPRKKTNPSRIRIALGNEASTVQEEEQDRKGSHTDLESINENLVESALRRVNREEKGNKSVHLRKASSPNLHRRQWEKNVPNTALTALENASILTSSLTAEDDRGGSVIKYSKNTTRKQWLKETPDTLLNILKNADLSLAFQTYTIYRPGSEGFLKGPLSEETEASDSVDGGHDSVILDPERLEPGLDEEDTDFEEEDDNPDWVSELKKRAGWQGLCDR

[7] = target: Serine/threonine-protein kinase Nek4 (Homo sapiens) (UniProt P51957); assay: Selectivity interaction (KinomeScan (DiscoverX)) EUB0000595a NEK4; details: at 10 µM
Sequence of Serine/threonine-protein kinase Nek4 (Homo sapiens) (P51957 whole entry, looked up): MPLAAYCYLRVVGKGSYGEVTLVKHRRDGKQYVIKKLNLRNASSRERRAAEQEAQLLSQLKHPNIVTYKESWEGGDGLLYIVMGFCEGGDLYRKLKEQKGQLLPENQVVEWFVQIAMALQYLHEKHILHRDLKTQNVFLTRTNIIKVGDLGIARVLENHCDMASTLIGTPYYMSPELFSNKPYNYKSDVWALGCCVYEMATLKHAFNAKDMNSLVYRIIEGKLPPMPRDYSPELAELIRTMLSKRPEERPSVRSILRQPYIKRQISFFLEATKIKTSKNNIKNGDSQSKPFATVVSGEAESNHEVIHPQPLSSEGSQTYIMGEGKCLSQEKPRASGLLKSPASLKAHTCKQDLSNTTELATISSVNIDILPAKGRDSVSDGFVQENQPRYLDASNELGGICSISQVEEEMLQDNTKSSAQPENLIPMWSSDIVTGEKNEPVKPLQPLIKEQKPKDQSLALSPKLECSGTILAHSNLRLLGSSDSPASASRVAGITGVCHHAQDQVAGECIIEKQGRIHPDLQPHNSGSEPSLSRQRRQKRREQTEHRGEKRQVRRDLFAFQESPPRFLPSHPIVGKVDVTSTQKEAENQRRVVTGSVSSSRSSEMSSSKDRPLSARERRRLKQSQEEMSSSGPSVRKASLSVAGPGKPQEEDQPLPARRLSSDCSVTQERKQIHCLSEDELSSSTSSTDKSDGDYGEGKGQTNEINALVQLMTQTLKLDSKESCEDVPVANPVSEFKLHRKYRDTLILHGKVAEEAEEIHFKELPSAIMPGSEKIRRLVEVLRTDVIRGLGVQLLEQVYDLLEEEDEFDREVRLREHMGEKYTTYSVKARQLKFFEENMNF

[8] = target: Fibroblast growth factor receptor 3 (Homo sapiens, UniProt P22607); assay: (§1) Selectivity interaction (KinomeScan (DiscoverX)) EUB0000595a FGFR3; details: at 10 µM
[9] = test system: Fibroblast growth factor receptor 3 (Homo sapiens), P22607 [G697C]; assay: as §1; details: at 10 µM
Sequence of Fibroblast growth factor receptor 3 (Homo sapiens), P22607 [G697C] (P22607 whole entry G697C): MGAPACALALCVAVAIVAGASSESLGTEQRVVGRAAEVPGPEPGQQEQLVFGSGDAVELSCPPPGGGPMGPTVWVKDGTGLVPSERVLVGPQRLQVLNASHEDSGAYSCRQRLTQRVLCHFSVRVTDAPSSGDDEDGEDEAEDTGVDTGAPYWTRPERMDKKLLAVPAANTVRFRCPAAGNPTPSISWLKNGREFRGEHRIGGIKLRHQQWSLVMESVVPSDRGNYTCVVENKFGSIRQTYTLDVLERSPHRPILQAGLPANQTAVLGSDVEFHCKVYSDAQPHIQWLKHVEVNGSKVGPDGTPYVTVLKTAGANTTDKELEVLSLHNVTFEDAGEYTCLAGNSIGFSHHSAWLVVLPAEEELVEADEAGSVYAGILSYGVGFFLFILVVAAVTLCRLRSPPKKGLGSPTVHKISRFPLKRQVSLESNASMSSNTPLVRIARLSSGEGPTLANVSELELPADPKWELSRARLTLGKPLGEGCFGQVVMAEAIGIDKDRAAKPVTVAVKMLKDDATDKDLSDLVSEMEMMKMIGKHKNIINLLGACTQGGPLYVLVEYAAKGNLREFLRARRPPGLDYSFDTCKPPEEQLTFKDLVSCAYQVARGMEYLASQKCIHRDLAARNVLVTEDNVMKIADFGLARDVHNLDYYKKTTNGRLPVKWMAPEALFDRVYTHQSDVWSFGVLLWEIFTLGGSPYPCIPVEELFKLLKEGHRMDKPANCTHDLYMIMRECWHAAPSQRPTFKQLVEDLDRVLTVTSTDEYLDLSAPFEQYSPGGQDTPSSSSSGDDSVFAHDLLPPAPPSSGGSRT

[10] = target: Serine/threonine-protein kinase PAK 6 (Homo sapiens) (UniProt Q9NQU5); assay: Selectivity interaction (KinomeScan (DiscoverX)) EUB0000092b PAK6; details: at 10 µM
Sequence of Serine/threonine-protein kinase PAK 6 (Homo sapiens) (Q9NQU5 whole entry, looked up): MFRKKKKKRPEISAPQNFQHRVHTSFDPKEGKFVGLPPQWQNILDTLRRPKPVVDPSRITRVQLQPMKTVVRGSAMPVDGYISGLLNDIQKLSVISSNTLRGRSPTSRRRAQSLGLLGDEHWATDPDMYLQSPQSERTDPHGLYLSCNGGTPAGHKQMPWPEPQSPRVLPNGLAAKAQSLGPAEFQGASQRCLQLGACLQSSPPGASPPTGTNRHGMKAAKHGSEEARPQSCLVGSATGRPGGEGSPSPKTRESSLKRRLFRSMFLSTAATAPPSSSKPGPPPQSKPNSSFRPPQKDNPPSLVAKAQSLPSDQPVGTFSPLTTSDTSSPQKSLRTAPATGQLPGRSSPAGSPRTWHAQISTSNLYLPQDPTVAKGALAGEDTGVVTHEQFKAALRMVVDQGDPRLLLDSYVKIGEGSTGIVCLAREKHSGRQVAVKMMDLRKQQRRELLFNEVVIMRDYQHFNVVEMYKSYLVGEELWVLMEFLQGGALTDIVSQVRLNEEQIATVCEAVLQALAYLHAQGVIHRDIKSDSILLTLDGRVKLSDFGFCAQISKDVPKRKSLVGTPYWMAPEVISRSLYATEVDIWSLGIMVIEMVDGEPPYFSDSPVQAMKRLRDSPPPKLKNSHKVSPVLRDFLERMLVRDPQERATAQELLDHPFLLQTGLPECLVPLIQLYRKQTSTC

[11] = target: T2, MAP kinase-activated protein kinase 5 (Homo sapiens) (UniProt Q8IW41); assay: Selectivity interaction (Ambit KINOMEscan and KiNATiv profiling in Jurkat cells) EUB0000090b MAPKAPK5; assay type: cell-based; details: at 1 µM
T2 sequence (whole entry): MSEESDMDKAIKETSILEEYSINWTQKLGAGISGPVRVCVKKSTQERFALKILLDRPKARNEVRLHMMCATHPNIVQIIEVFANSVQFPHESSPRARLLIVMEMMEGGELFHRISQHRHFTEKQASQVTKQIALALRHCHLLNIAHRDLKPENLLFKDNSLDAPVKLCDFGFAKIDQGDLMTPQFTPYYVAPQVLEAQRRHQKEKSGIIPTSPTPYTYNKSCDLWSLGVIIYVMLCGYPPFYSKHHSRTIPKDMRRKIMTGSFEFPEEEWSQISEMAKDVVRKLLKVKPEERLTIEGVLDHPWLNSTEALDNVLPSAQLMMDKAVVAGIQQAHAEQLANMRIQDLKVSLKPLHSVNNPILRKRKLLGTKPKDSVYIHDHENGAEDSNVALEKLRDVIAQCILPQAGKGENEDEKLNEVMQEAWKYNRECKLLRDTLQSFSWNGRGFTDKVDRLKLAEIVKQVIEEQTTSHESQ

[12] = target: Cyclin-dependent kinase 2 (Homo sapiens, UniProt P24941); assay: Selectivity interaction (KinomeScan (DiscoverX)) EUB0001619a CDK2; details: at 1 µM
[13] = target: T3, Ephrin type-A receptor 1 (Homo sapiens) (UniProt P21709); assay: Selectivity interaction (Upstate Kinase Profiler service (Millipore)) EUB0000056c EPHA1; details: at 1 µM
T3 sequence (whole entry): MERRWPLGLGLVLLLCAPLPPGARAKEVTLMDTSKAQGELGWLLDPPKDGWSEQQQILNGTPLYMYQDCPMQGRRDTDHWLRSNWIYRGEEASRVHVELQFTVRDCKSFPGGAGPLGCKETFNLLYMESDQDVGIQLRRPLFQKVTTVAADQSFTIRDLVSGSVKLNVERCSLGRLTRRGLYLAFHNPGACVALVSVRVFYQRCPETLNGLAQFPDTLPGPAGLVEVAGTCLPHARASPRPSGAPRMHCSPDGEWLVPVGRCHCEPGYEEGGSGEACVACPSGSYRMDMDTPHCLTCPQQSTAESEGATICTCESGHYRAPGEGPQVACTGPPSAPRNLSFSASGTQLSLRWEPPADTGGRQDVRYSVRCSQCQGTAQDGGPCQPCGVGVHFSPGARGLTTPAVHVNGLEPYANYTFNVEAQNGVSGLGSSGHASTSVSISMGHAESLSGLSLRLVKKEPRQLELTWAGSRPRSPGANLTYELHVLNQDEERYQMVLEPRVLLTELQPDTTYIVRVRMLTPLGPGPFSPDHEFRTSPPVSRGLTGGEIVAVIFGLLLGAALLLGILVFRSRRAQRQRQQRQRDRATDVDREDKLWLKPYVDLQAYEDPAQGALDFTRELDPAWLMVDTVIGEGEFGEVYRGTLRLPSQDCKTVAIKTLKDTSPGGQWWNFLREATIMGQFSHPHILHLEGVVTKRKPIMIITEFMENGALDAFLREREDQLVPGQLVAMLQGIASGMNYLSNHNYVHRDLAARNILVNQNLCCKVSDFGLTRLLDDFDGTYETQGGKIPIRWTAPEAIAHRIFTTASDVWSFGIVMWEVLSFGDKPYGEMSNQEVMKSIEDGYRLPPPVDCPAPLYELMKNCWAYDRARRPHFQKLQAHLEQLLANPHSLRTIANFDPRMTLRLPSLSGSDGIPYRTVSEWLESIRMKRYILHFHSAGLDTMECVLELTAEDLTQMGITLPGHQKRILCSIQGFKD

Sequence of Serine/threonine-protein kinase B-raf (P15056 2-766 V600E limits assumed): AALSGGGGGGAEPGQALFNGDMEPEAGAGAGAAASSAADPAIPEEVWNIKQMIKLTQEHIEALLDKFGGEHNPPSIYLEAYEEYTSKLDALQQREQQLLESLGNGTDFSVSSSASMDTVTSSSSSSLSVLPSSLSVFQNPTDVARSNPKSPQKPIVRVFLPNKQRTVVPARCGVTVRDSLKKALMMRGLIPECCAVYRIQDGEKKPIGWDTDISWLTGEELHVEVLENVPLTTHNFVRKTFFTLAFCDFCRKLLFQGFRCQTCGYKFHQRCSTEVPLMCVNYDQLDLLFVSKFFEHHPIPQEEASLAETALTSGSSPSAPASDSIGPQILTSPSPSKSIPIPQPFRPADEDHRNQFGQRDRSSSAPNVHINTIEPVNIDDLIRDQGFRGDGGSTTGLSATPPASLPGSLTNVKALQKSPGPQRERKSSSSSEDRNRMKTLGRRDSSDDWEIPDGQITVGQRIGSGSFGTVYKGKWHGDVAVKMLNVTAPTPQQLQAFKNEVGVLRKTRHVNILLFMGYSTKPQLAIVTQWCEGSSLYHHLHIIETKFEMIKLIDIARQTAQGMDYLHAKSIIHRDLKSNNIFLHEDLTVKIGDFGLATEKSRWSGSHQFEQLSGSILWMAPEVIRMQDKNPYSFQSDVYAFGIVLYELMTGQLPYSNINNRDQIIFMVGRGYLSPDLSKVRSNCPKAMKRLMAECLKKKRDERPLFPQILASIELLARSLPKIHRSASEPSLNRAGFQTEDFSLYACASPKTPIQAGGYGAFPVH

In the case of `CN1Cc2nccc(-c3cn(C)nc3-c3ccc(F)cc3)c2C1=O`, the IC50 (Aurora kinase B) is reported as 10.2 µM.
Compound `O=C(NOC[C@H](O)CO)c1ccc(F)c(F)c1Nc1ccc(I)cc1F` has a % of control [1] of 100%.
In the case of `CCc1cc(Nc2nccc(-c3c(-c4ccc(OC)c(C(=O)Nc5c(F)cccc5F)c4)nc4ccccn34)n2)c(OC)cc1N1CCC(N2CCN(S(C)(=O)=O)CC2)CC1`, the IC50 [2] is reported as > 2 µM.
With `COc1cc(N(C)c2ccnc3ccc(C(F)(F)F)cc23)cc(OC)c1OC` the % binding [3] was 59%.
`Nc1cnc(N2CCc3cc(S(=O)(=O)Nc4c(F)cc(Cl)cc4F)cc(N4CCCC4=O)c32)nc1` [TP-020n] gave a % of control [4] of 85%.
In the case of `CN(C)CCCOc1ccc(-c2cc(NCCCn3cccn3)nc(S(C)(=O)=O)n2)cc1`, the dTM [5] is reported as < 2 K.
Work on `CC[C@@H]1[C@H](F)C(=O)N[C@@H]1COc1nccc2cc(C(N)=O)c(OC)cc12` [ZIMLOVISERTIB] yielded a % of inhibition ([6]; at 0.01 µM) of -5.8%, a % of inhibition ([6]; at 0.04 µM) of -2.4% and a % of inhibition ([6]; at 0.2 µM) of 6.9%. The % of inhibition ([6]; at 1 µM) was -1.1% and the % of inhibition ([6]; at 5 µM) was -11.5%.
For `COCC(=O)NC/C=C/c1ccc2ncnc(Nc3ccc(Oc4ccc(C)nc4)c(C)c3)c2c1` [CP-724714], the % of control [7] was 100%, the % of control [8] was 100% and the % of control [9] was 90%.
In the case of `CCC(=O)N1CCN(c2ccc(-n3c(=O)ccc4cnc5ccc(-c6cnc7ccccc7c6)cc5c43)cc2C(F)(F)F)CC1`, the % of control [10] is reported as 77%.
Compound `CN(C)C/C=C/C(=O)Nc1ccc(C(=O)N2CCCC(Nc3ncc(Cl)c(-c4c[nH]c5ccccc45)n3)C2)cc1` (stereo not drawn) has a % of control [11] of 99%.
Compound `N#Cc1cccc(-c2c[nH]c3ncnc(N4CCOCC4)c23)c1` has a % of control [12] of 89%.
In the case of `Cc1ccc(-c2ccc3c(ccc4sc5c(c43)NC[C@@H](C)NC5=O)n2)cn1`, the % of inhibition [13] is reported as -6%.

Source: ChEMBL document CHEMBL5465560, “Selectivity Literature for EUbOPEN Chemogenomic Library” (2024)
